Assay results: ChEMBL document CHEMBL4808189, “The combination of sesamol and clofibric acid moieties leads to a novel potent hypolipidemic agent with antioxidant, anti-inflammatory and hepatoprotective activity” (Bioorg Med Chem Lett, 2021)
Active and inactive are the calls of the source. The calls are words filed in the database; no cut-off is given here.

Columns and labels:
[1] = Hepatotoxicity in Kunming mouse assessed as increase in plasma alanine aminotransferase level at 412 mg/kg, ig for 1 month; format: toxicity, organism-based; settings: in vivo, po, 730 h, time 1 months
[2] = Hepatotoxicity in Kunming mouse assessed as cell infiltration in central vein and inflammatory cell infiltration at 412 mg/kg, ig for 1 month by H and E staining based analysis; format: toxicity, organism-based; settings: in vivo, po, 730 h, time 1 months
[3] = Hepatotoxicity in Kunming mouse assessed as increase in liver coefficient at 412 mg/kg, ig for 1 month; format: toxicity, organism-based; settings: in vivo, po, 730 h, time 1 months
[4] = Hepatotoxicity in Kunming mouse assessed as hepatocyte swelling at 412 mg/kg, ig for 1 month by H and E staining based analysis; format: toxicity, organism-based; settings: in vivo, po, 730 h, time 1 months
Mus musculus [5] = test: Upregulation of Nrf2 protein expression in Kunming mouse liver nucleus at 412 mg/kg, ig for 1 month by western blot analysis; format: functional, organism-based; settings: time 1.0 months
[6] = Acute toxicity in Kunming mouse assessed as change in body weight at 412 mg/kg, ig for 1 month; format: organism-based; settings: in vivo, po, 730 h, time 1 months
Mus musculus [7] = test: Hypolipidemic activity in TritonWR1339-induced hyperlipidemic Kunming mouse model assessed as reduction in plasma TG level at 0.362 mmol/kg, ig administered for 7 days; format: functional; settings: po, 168 h, time 7 day
[8] = Hepatotoxicity in Kunming mouse assessed as induction of oxidative stress by measuring decrease in plasma superoxide dismutase level at 412 mg/kg, ig for 1 month; format: toxicity, organism-based; settings: in vivo, po, 730 h, time 1 months
[9] = Hepatotoxicity in Kunming mouse assessed as increase in plasma total protein level at 412 mg/kg, ig for 1 month; format: toxicity, organism-based; settings: in vivo, po, 730 h, time 1 months
[10] = Upregulation of p-NF-kB-p65 protein expression in Kunming mouse liver at 412 mg/kg, ig for 1 month by western blot analysis; format: ADME, organism-based; settings: in vivo, po, 730 h, time 1 months
[11] = Hepatotoxicity in Kunming mouse assessed as induction of inflammatory response by measuring upregulation of TNF-alpha level in liver at 412 mg/kg, ig for 1 month by western blot analysis; format: toxicity, organism-based; settings: in vivo, po, 730 h, time 1 months
[12] = Hepatotoxicity in Kunming mouse assessed as induction of oxidative stress by measuring increase in plasma MDA level at 412 mg/kg, ig for 1 month; format: toxicity, organism-based; settings: in vivo, po, 730 h, time 1 months
[13] = Hepatotoxicity in Kunming mouse assessed as induction of oxidative stress by measuring decrease in plasma GSH level at 412 mg/kg, ig for 1 month; format: toxicity, organism-based; settings: in vivo, po, 730 h, time 1 months
[14] = Hepatotoxicity in Kunming mouse assessed as induction of inflammatory response by measuring upregulation of IL-6 level in liver at 412 mg/kg, ig for 1 month by western blot analysis; format: toxicity, organism-based; settings: in vivo, po, 730 h, time 1 months
[15] = Hepatotoxicity in Kunming mouse assessed as increase in plasma aspartate transaminase level at 412 mg/kg, ig for 1 month; format: toxicity, organism-based; settings: in vivo, po, 730 h, time 1 months
[16] = Hepatotoxicity in Kunming mouse assessed as increase in hepatic weight at 412 mg/kg, ig for 1 month; format: toxicity, organism-based; settings: in vivo, po, 730 h, time 1 months
Mus musculus [17] = test: Upregulation of HO-1 protein expression in Kunming mouse liver at 412 mg/kg, ig for 1 month by western blot analysis; format: functional, organism-based; settings: time 1.0 months
[18] = Hepatotoxicity in Kunming mouse assessed as induction of oxidative stress by measuring decrease in plasma CAT level at 412 mg/kg, ig for 1 month; format: toxicity, organism-based; settings: in vivo, po, 730 h, time 1 months
Mus musculus [19] = test: Hypolipidemic activity in TritonWR1339-induced hyperlipidemic Kunming mouse model assessed as reduction in plasma TC level at 0.362 mmol/kg, ig administered for 7 days; format: functional; settings: po, 168 h, time 7 day
[20] = Hepatotoxicity in Kunming mouse assessed as increase in plasma alkaline phosphatase level at 412 mg/kg, ig for 1 month; format: toxicity, organism-based; settings: in vivo, po, 730 h, time 1 months
[21] = Hepatotoxicity in Kunming mouse assessed as increase in liver coefficient at 300 mg/kg, ig for 1 month; format: toxicity, organism-based; settings: in vivo, po, 730 h, time 1 months
[22] = Hepatotoxicity in Kunming mouse assessed as increase in plasma total protein level at 300 mg/kg, ig for 1 month; format: toxicity, organism-based; settings: in vivo, po, 730 h, time 1 months
[23] = Hepatotoxicity in Kunming mouse assessed as large areas of hepatocyte swelling, necrosis, loose cytoplasm, nuclear degeneration and dissolution at 300 mg/kg, ig for 1 month by H and E staining based analysis; format: toxicity, organism-based; settings: in vivo, po, 730 h, time 1 months
[24] = Hepatotoxicity in Kunming mouse assessed as induction of inflammatory response by measuring upregulation of IL-6 level in liver at 300 mg/kg, ig for 1 month by western blot analysis; format: toxicity, organism-based; settings: in vivo, po, 730 h, time 1 months
[25] = Hepatotoxicity in Kunming mouse assessed as increase in plasma alanine aminotransferase level at 300 mg/kg, ig for 1 month; format: toxicity, organism-based; settings: in vivo, po, 730 h, time 1 months
[26] = Hepatotoxicity in Kunming mouse assessed as increase in hepatic weight at 300 mg/kg, ig for 1 month; format: toxicity, organism-based; settings: in vivo, po, 730 h, time 1 months
Mus musculus [27] = test: Upregulation of HO-1 protein expression in Kunming mouse liver at 300 mg/kg, ig for 1 month by western blot analysis; format: functional, organism-based; settings: time 1.0 months
[28] = Hepatotoxicity in Kunming mouse assessed as cell infiltration in central vein and inflammatory cell infiltration at 300 mg/kg, ig for 1 month by H and E staining based analysis; format: toxicity, organism-based; settings: in vivo, po, 730 h, time 1 months
[29] = Hepatotoxicity in Kunming mouse assessed as induction of oxidative stress by measuring increase in plasma MDA level at 300 mg/kg, ig for 1 month; format: toxicity, organism-based; settings: in vivo, po, 730 h, time 1 months
[30] = Hepatotoxicity in Kunming mouse assessed as increase in plasma aspartate transaminase level at 300 mg/kg, ig for 1 month; format: toxicity, organism-based; settings: in vivo, po, 730 h, time 1 months
[31] = Hepatotoxicity in Kunming mouse assessed as induction of inflammatory response by measuring upregulation of TNF-alpha level in liver at 300 mg/kg, ig for 1 month by western blot analysis; format: toxicity, organism-based; settings: in vivo, po, 730 h, time 1 months
Mus musculus [32] = test: Upregulation of Nrf2 protein expression in Kunming mouse liver nucleus at 300 mg/kg, ig for 1 month by western blot analysis; format: functional, organism-based; settings: time 1.0 months
[33] = Hepatotoxicity in Kunming mouse assessed as induction of oxidative stress by measuring decrease in plasma CAT level at 300 mg/kg, ig for 1 month; format: toxicity, organism-based; settings: in vivo, po, 730 h, time 1 months
[34] = Upregulation of p-NF-kB-p65 protein expression in Kunming mouse liver at 300 mg/kg, ig for 1 month by western blot analysis; format: ADME, organism-based; settings: in vivo, po, 730 h, time 1 months
[35] = Hepatotoxicity in Kunming mouse assessed as induction of oxidative stress by measuring decrease in plasma GSH level at 300 mg/kg, ig for 1 month; format: toxicity, organism-based; settings: in vivo, po, 730 h, time 1 months
[36] = Acute toxicity in Kunming mouse assessed as change in body weight at 300 mg/kg, ig for 1 month; format: organism-based; settings: in vivo, po, 730 h, time 1 months
[37] = Hepatotoxicity in Kunming mouse assessed as induction of oxidative stress by measuring decrease in plasma superoxide dismutase level at 300 mg/kg, ig for 1 month; format: toxicity, organism-based; settings: in vivo, po, 730 h, time 1 months
[38] = Hepatotoxicity in Kunming mouse assessed as increase in plasma alkaline phosphatase level at 300 mg/kg, ig for 1 month; format: toxicity, organism-based; settings: in vivo, po, 730 h, time 1 months

**Q.** What does the source list for CC(C)(Oc1ccc(Cl)cc1)C(=O)Oc1ccc2c(c1)OCO2?
**A.** Activity [1]: Non-Toxic; Activity [2]: Non-Toxic; Activity [3]: Non-Toxic; Activity [4]: Toxic; Activity (Mus musculus [5]): Active; Activity [6]: Non-Toxic; inhibition in vivo at 362 µmol/kg (Mus musculus [7]): 38.6%; Activity [8]: Non-Toxic; Activity [9]: Non-Toxic; Activity [10]: Non-Toxic; Activity [11]: Non-Toxic; Activity [12]: Non-Toxic; Activity [13]: Toxic; Activity [14]: Non-Toxic; Activity [15]: Non-Toxic; Activity [16]: Non-Toxic; Activity (Mus musculus [17]): Active; Activity [18]: Non-Toxic; inhibition in vivo at 362 µmol/kg (Mus musculus [19]): 35.1%; Activity [20]: Non-Toxic

**Q.** What does the source list for CCOC(=O)C(C)(C)Oc1ccc(Cl)cc1 [CLOFIBRATE]?
**A.** Activity [21]: Toxic; Activity [22]: Toxic; inhibition in vivo at 362 µmol/kg (Mus musculus [7]): 25.5%; Activity [23]: Toxic; Activity [24]: Toxic; Activity [25]: Toxic; Activity [26]: Toxic; Activity (Mus musculus [27]): inactive; Activity [28]: Toxic; Activity [29]: Toxic; Activity [30]: Toxic; Activity [31]: Toxic; Activity (Mus musculus [32]): inactive; Activity [33]: Toxic; Activity [34]: Toxic; Activity [35]: Toxic; Activity [36]: Non-Toxic; Activity [37]: Toxic; inhibition in vivo at 362 µmol/kg (Mus musculus [19]): 21.2%; Activity [38]: Toxic
